# Where two headings read alike, the source gives them in different places.
# Assays:
# human TRPV1 = target: T1, human TRPV1 (Homo sapiens, UniProt Q8NER1, M315I/T336M); assay: Intracellular calcium (Fluo-4, FLIPR) activation of TRPV1 cells by GRAS compounds; type: cell-based; settings: for activation at 1000 µM / activation at 100 µM: read-out: V1 activation, % of agonist value;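 for all read-outs here: TRPV1-expressing cells, FLIPR fluorescence at 488/514 nm with baseline subtracted, sampled every 2 s for 10 min after adding compound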
# T1 construct: expressed in transfected cells; pcDNA3 control cells
# TRPA1V1 = assay: Intracellular calcium (Fluo-4, FLIPR) activation of TRPA1V1 cells (co-expressing TRPA1 and TRPV1) by GRAS compounds; type: cell-based, human;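 note: HEK293 cells co-expressing TRPA1 and TRPV1, fluorescence read at 488/514 nm after baseline subtraction, recorded every 2 s over 10 min, ionomycin 10 µM and buffer as controls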
# human TRPA1 = target: T2, human TRPA1 (Homo sapiens, UniProt O75762, K186N/R3C/R58T); assay: Intracellular calcium (Fluo-4, FLIPR) activation of TRPA1 cells by GRAS compounds; type: cell-based; settings: relative to AITC 30 μM; for activation at 1000 µM / A1 activation, % of agonist value: 1 mM; for activation at 1000 µM / activation at 100 µM: read-out: A1 activation, % of agonist value;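 for all read-outs here: TRPA1-expressing cells, fluorescence read on a FLIPR Tetra (ex 488 nm, em 514 nm) every 2 s for 10 min after compound addition, baseline subtracted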
# T2 construct: expressed in transfected cells; pcDNA3 control cells
# [1] = Table 1(b), 1 mM, relative to capsaicin 350 nM
# [2] = Table 1(b), 1 mM, relative to AITC 30 μM
# [3] = Table 1(a), 1 mM, relative to capsaicin 350 nM, average of three plates
# [4] = Table 1(a), 1 mM, relative to AITC 30 μM, average of three plates
# [5] = Table 1(a), average of three plates
# [6] = Table 1(e), 100 μM (*), relative to AITC 30 μM
# T1 sequence (Q8NER1 whole entry M315I/T336M): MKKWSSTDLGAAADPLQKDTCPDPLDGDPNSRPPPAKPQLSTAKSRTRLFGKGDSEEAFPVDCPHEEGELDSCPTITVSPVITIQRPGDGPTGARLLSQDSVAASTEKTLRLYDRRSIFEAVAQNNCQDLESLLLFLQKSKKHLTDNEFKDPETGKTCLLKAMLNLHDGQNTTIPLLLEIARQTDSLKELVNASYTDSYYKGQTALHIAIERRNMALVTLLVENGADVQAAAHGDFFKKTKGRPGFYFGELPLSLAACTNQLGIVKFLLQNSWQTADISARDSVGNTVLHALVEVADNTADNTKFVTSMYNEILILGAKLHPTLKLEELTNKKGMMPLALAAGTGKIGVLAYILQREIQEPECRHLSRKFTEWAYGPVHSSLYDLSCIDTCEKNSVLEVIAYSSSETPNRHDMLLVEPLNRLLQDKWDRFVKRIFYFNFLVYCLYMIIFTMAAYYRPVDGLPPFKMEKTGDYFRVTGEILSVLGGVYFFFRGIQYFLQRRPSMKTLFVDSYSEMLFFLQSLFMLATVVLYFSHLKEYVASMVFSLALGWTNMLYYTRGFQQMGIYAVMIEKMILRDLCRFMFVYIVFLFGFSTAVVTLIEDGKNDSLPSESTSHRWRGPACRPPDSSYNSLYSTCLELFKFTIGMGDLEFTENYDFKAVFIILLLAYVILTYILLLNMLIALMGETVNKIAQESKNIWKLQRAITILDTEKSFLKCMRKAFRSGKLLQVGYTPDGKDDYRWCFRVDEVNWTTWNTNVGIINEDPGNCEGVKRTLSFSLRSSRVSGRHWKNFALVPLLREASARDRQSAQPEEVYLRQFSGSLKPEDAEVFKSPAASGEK
# T2 sequence (O75762 whole entry R3C/R58T/K186N): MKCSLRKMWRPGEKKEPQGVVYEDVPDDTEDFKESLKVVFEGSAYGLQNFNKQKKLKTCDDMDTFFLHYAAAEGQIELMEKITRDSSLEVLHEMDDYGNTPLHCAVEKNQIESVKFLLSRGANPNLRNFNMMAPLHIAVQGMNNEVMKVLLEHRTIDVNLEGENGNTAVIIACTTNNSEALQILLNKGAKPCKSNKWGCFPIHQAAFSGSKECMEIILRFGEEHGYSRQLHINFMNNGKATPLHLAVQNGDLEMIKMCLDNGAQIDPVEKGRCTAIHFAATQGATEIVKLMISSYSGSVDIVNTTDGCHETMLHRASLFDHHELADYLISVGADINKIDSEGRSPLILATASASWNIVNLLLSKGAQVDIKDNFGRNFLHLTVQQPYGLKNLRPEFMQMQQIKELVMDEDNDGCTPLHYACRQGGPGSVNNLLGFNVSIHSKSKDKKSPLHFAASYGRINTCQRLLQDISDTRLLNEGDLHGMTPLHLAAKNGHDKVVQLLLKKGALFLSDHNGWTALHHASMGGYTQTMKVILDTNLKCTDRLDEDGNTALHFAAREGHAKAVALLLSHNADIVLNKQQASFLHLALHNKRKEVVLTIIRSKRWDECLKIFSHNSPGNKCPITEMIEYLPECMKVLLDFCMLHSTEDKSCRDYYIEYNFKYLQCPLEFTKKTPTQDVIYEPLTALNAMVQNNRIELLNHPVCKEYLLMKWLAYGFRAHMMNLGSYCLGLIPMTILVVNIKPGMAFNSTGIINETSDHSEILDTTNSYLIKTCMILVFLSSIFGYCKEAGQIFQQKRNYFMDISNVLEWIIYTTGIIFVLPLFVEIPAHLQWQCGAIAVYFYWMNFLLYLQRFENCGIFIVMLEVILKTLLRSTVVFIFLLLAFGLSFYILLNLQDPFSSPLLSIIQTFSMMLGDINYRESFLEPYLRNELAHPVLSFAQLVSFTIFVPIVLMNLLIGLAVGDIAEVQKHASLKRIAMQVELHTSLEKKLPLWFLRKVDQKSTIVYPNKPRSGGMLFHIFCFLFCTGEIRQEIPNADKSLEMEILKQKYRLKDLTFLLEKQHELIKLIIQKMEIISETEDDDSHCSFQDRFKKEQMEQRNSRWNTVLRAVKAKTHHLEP
structure (smiles),measurement,setting,value
CCCCCC/C=C/C=O [(E)-2-Nonenal],activation at 1000 µM,human TRPV1; [1],89%
same,"A1V1 activation, % of agonist value",TRPA1V1; [2],61.8%
same,activation at 1000 µM,human TRPA1; Table 1(b),130%
C=CCSSSCC=C [Allyl-trisulfide],activation at 1000 µM,human TRPV1; [3],32.9%
same,"A1V1 activation, % of agonist value",TRPA1V1; [4],89.08%
same,activation at 1000 µM,human TRPA1; [5],83.5%
CCCCCC(=Cc1ccccc1)CO [Alpha-Amylcinnamyl alcohol],activation at 1000 µM,human TRPV1; [3],21.1%
same,"A1V1 activation, % of agonist value",TRPA1V1; [4],77.36%
same,activation at 1000 µM,human TRPA1; [5],96.4%
CC1COC(c2ccccc2)O1 (stereo not shown) [Benzaldehyde propylene glycol acetal],"V1 activation, % of agonist value",human TRPV1; [1],34.38%
same,"A1V1 activation, % of agonist value",TRPA1V1; [2],78.33%
same,"A1 activation, % of agonist value",human TRPA1; Table 1(b),48.03%
c1ccc2scnc2c1 [Benzothiazole],activation at 100 µM,"human TRPV1; Table 1(a), relative to capsaicin 350 nM",33.4%
same,"A1V1 activation, % of agonist value","TRPA1V1; Table 1(a), 100 μM (*), relative to AITC 30 μM",74.4%
same,activation at 100 µM,human TRPA1; Table 1(a),51.3%
CC1=C(CC=O)C(C)(C)CCC1 [Beta-Cyclohomocitral],"V1 activation, % of agonist value",human TRPV1; [3],61.74%
same,"A1V1 activation, % of agonist value",TRPA1V1; [4],66.79%
same,"A1 activation, % of agonist value",human TRPA1; [5],81.44%
"CCCCOC(=O)c1ccc(O)cc1 [Butylparaben, Butyl 4-hydroxybenzoate]",activation at 1000 µM,human TRPV1; [3],79.1%
same,"A1V1 activation, % of agonist value",TRPA1V1; [4],98.1%
same,"A1V1 activation, % of agonist value",TRPA1V1; [6],127.3%
same,activation at 1000 µM,human TRPA1; [5],105%
same,activation at 100 µM,human TRPA1; Table 1(e),98.7%
Cc1ccc(C(C)C)cc1O [Carvacrol],activation at 1000 µM,human TRPV1; [1],84.6%
same,"A1V1 activation, % of agonist value",TRPA1V1; [2],134.1%
same,activation at 1000 µM,human TRPA1; Table 1(b),115%
CC(C)=CCCC(C)CCO (stereo not shown) [Citronellol],activation at 1000 µM,human TRPV1; [1],106%
same,"A1V1 activation, % of agonist value",TRPA1V1; [2],34.4%
same,activation at 1000 µM,human TRPA1; Table 1(b),102%
COc1cc(/C=C/C(=O)CC(=O)/C=C/c2ccc(O)c(OC)c2)ccc1O [Curcumin],activation at 1000 µM,human TRPV1; [1],43.2%
same,"A1V1 activation, % of agonist value",TRPA1V1; [2],171.6%
same,"A1V1 activation, % of agonist value",TRPA1V1; [6],150.3%
same,activation at 1000 µM,human TRPA1; Table 1(b),95.3%
same,activation at 100 µM,human TRPA1; Table 1(e),102%
O=C(O)CC1CCCCC1 [Cyclohexaneacetic acid],activation at 1000 µM,human TRPV1; [3],56.6%
same,"A1V1 activation, % of agonist value",TRPA1V1; [4],61.28%
same,activation at 1000 µM,human TRPA1; [5],20.6%
CCOC(=O)C(O)Cc1ccccc1 (stereo not shown) [Ethyl 2-hydroxy-3-phenylpropanoate],activation at 1000 µM,human TRPV1; [3],29.2%
same,"A1V1 activation, % of agonist value",TRPA1V1; [4],90.76%
same,activation at 1000 µM,human TRPA1; [5],95.6%
CCCCCC(O)CC(=O)OCC (stereo not shown) [Ethyl 3-hydroxyoctanoate],activation at 1000 µM,human TRPV1; [1],28.1%
same,"A1V1 activation, % of agonist value",TRPA1V1; [2],76.90%
same,activation at 1000 µM,human TRPA1; Table 1(b),97.3%
CC(C)=CCCC(C)=CCCC(C)=CC=O [Farnesal],"V1 activation, % of agonist value",human TRPV1; [3],41.22%
same,"A1V1 activation, % of agonist value",TRPA1V1; [4],104.4%
same,"A1 activation, % of agonist value",human TRPA1; [5],97.58%
CCCCCC1CCC(=O)O1 (stereo not shown) [Gamma-Nonalactone],"V1 activation, % of agonist value",human TRPV1; [3],66.34%
same,"A1V1 activation, % of agonist value",TRPA1V1; [4],69.15%
same,"A1 activation, % of agonist value",human TRPA1; [5],33.32%
CC(C)=CCC/C(C)=C/CO [Geraniol],activation at 1000 µM,human TRPV1,42.2%
same,"A1V1 activation, % of agonist value",TRPA1V1,63.93%
same,activation at 1000 µM,human TRPA1; Table 1(b),82.5%
CCCC(=O)OC/C=C(\C)CCC=C(C)C [Geranyl butyrate],activation at 1000 µM,human TRPV1; [3],28.9%
same,"A1V1 activation, % of agonist value",TRPA1V1; [4],76.26%
same,activation at 1000 µM,human TRPA1; [5],76.9%
"CCCCCC1C(=O)CCC1CC(=O)OC (stereo not shown) [Hedione, Methyl dihydrojasmonate]",activation at 1000 µM,human TRPV1; [1],25.6%
same,"A1V1 activation, % of agonist value",TRPA1V1; [2],60.64%
same,"A1V1 activation, % of agonist value","TRPA1V1; Table 1(c), 1 mM, relative to AITC 30 μM",59.58%
same,activation at 1000 µM,human TRPA1; Table 1(b),43.5%
same,activation at 1000 µM,human TRPA1; Table 1(c),54.4%
CC(C=O)Cc1ccc2c(c1)OCO2 (stereo not shown) [Helional],"V1 activation, % of agonist value",human TRPV1; [3],23.38%
same,"A1V1 activation, % of agonist value",TRPA1V1; [4],71.85%
same,"A1 activation, % of agonist value",human TRPA1; [5],78.00%
CCCCCCC=O [Heptaldehyde],activation at 100 µM,"human TRPV1; Table 1(i), relative to capsaicin 350 nM, […]",65.3%
same,"TRPV1 activation selectivity, in words","human TRPV1; statement in description, see Table 1(i)",TRPV1 activators which do not modulate TRPA1 or TRPA1V1
same,"A1V1 activation, % of agonist value","TRPA1V1; Table 1(i), 100 μM (*), relative to AITC 30 μM or capsaicin 350 nM depending on compound, […]",2.4%
same,activation at 100 µM,"human TRPA1; Table 1(i), […]",4.3%
CC(C)CCOC(=O)CCc1ccco1 [Isoamyl 3-(2-furan)propionate],"V1 activation, % of agonist value",human TRPV1; [1],32.66%
same,"A1V1 activation, % of agonist value",TRPA1V1; [2],106.9%
same,"A1 activation, % of agonist value",human TRPA1; Table 1(b),123.3%
